Assay results: patent publication US10093713B2, “GIP-GLP-1 dual agonist compounds and methods” (priority 2013, dated 2018)
Where two headings read alike, the source gives them in different places. *1 amine or outer side, *2 acyl side, *3 side chain or, on linkers, in order; H or OH if unused. Where a SMILES comes first, the peptide text is derived from it. Side-chain parts run from the residue outwards. [ ]: non-standard residue; d: D form. The star is where a group is joined. X1 = O=C(O)CCCCCCCCCCCCCCCCCCC(=O)N1CCN(CC(=O)*)CC1; C20 diacid = O=C(O)CCCCCCCCCCCCCCCCCCC(=O)*; C18 diacid = O=C(O)CCCCCCCCCCCCCCCCC(=O)*; γGlu = O=C(O)[C@H](CCC(=O)[*:2])N[*:1]; AEEA = NCCOCCOCC(=O)O; Aib = CC(C)(N)C(=O)O

Tests used:
human GIP R = target: T1, human GIP R (Homo sapiens, UniProt P48546); test: Human GIP receptor (GIP R) activity assay, cAMP induction (AlphaScreen) in HEK293 cells; type: cell-based; conditions: read-out: hGIP-R cAMP EC50 average value
T1 construct: expressed in transfected cells
T1 sequence (P48546 22-466): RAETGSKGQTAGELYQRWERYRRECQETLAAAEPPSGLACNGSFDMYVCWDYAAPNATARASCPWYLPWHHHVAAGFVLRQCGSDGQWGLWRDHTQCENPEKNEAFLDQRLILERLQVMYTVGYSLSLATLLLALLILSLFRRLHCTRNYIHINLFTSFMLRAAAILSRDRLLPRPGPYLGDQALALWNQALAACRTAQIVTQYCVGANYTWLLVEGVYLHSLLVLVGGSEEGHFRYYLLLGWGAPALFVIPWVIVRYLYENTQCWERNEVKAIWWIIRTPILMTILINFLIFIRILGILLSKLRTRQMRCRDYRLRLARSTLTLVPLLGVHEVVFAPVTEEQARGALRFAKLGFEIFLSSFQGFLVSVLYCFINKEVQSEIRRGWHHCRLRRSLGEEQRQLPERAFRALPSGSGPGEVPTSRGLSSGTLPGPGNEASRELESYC
Method: (§1) Human GIP Receptor (GIP R) and GLP-1 Receptor (GLP-1 R) Activity Assay
(§2) In vitro effects of peptide conjugates of the invention were assessed by measuring the induction of cAMP following stimulation of the respective receptor by GIP, GLP1 or analogues of these, as outlined in the invention, using the AlphaSceen® cAMP kit from Perkin-Elmer according to instructions. Briefly, HEK293 cells expressing the human GIP R or GLP-1 R (stable cell lines generated through transfection of the cDNA for human GIP R or GLP-1 and selection of stable clones) were seeded at 30,000 cells/well in 96-well microtiter plates coated with 0.01% poly-L-lysine, and grown for 1 day in culture in 200 μl growth medium (DMEM, 10% FCS, Penicillin (100 IU/ml), Streptomycin (100 μg/ml)). On the day of analysis, growth medium was removed and the cells were washed once with […] Tyrode's buffer (Tyrode's Salts (9.6 g/l), 10 mM HEPES, pH 7.4). […] The Assay buffer was removed and cells are lysed in 80 μl Lysis buffer (0.1% w/v BSA, 5 mM HEPES, 0.3% v/v Tween-20) per well. From each well 10 μl lysed cells was transferred to a 384-well plate and mixed with 15 μl bead-mix (1 Unit/15 μl anti-cAMP Acceptor Beads, 1 Unit/15 μl Donor Beads, and 1 Unit/15 μl Biotinylated cAMP in Assay Buffer). The plates were mixed and incubated in the dark for an hour at room temperature before measuring using an Envision™ plate reader (Perkin-Elmer).
(§3) The resulting cAMP curves were plotted as absolute cAMP concentrations (nM) over log (test compound concentration) and analyzed using the curve fitting program XLfit.
(§4) Parameters calculated to describe both the potency as well as the agonistic activity of each test compound on the receptors were:
(§5) EC50, a concentration resulting in a half-maximal elevation of cAMP levels, reflecting the potency of the test compound.

human GLP-1 R = target: T2, human GLP-1 R (Homo sapiens, UniProt P43220); test: Human GLP-1 receptor (GLP-1 R) activity assay, cAMP induction (AlphaScreen) in HEK293 cells; type: cell-based
T2 construct: expressed in transfected cells
Method: as §1, §2, §3, §4, §5

[1] = Table 2, HEK293 cells expressing human GIP R
[2] = Table 3, most comprehensive data
[3] = Table 2, HEK293 cells expressing human GLP-1 R, read-out: hGLP1-R cAMP EC50 average value
[4] = Table 3, most comprehensive data, read-out: hGLP-1-R cAMP EC50 average value

T2 sequence (P43220 24-463): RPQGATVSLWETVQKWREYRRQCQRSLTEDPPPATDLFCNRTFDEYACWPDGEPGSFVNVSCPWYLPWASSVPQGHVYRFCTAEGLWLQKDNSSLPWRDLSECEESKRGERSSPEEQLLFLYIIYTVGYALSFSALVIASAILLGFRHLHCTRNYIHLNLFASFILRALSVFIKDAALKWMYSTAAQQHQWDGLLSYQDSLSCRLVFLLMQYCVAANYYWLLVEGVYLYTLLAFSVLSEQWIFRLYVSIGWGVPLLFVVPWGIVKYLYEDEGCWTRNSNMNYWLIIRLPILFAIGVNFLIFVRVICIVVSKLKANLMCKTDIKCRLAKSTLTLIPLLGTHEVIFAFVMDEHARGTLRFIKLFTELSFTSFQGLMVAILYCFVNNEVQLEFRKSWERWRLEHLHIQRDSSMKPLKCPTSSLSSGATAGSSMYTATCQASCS

Structure (SMILES)	EC50 (human GIP R; [1]) [pM]	EC50 (human GIP R; [2]) [pM]	EC50 (human GLP-1 R; [3]) [pM]	EC50 (human GLP-1 R; [4]) [pM]
CC[C@H](C)[C@H](NC(=O)[C@H](CO)NC(=O)[C@H](Cc1ccc(O)cc1)NC(=O)[C@H](CC(=O)O)NC(=O)[C@H](CO)NC(=O)[C@@H](NC(=O)[C@H](Cc1ccccc1)NC(=O)[C@@H](NC(=O)CNC(=O)[C@H](CCC(=O)O)NC(=O)C(C)(C)NC(=O)[C@@H](N)Cc1ccc(O)cc1)[C@@H](C)O)[C@@H](C)O)C(=O)N[C@@H](C)C(=O)N[C@@H](CC(C)C)C(=O)N[C@@H](CCC(=O)O)C(=O)N[C@@H](CCCCN)C(=O)N[C@@H](CCCCNC(=O)COCCOCCNC(=O)COCCOCCNC(=O)CC[C@H](NC(=O)CCCCCCCCCCCCCCCCC(=O)O)C(=O)O)C(=O)N[C@@H](C)C(=O)N[C@@H](CCC(N)=O)C(=O)N[C@@H](CCCNC(=N)N)C(=O)N[C@@H](C)C(=O)N[C@@H](Cc1ccccc1)C(=O)N[C@H](C(=O)N[C@@H](CCC(=O)O)C(=O)N[C@@H](Cc1c[nH]c2ccccc12)C(=O)N[C@@H](CC(C)C)C(=O)N[C@@H](CCC(=O)O)C(=O)N[C@@H](C)C(=O)N[C@@H](CCC(N)=O)C(=O)NCC(=O)N1CCC[C@H]1C(=O)N[C@@H](CO)C(=O)N[C@@H](CO)C(=O)NCC(=O)N[C@@H](C)C(=O)N1CCC[C@H]1C(=O)N1CCC[C@H]1C(=O)N1CCC[C@H]1C(=O)N[C@@H](CO)C(N)=O)C(C)C [Compound 22] (H-Y[Aib]EGTFTSDYSIALEKK([AEEA-AEEA-γGlu-C18 diacid])AQRAFVEWLEAQGPSSGAPPPS-NH2)	60	60	61	61
CC[C@H](C)[C@H](NC(=O)[C@H](CO)NC(=O)[C@H](CC(C)C)NC(=O)[C@H](CC(=O)O)NC(=O)[C@H](CO)NC(=O)[C@@H](NC(=O)[C@H](Cc1ccccc1)NC(=O)[C@@H](NC(=O)CNC(=O)[C@H](CCC(=O)O)NC(=O)C(C)(C)NC(=O)[C@@H](N)Cc1ccc(O)cc1)[C@@H](C)O)[C@@H](C)O)C(=O)N[C@@H](C)C(=O)N[C@@H](CC(C)C)C(=O)N[C@@H](CCC(=O)O)C(=O)N[C@@H](CCCCN)C(=O)N[C@@H](CCCCNC(=O)COCCOCCNC(=O)COCCOCCNC(=O)CC[C@H](NC(=O)CCCCCCCCCCCCCCCCC(=O)O)C(=O)O)C(=O)N[C@@H](C)C(=O)N[C@@H](CCC(N)=O)C(=O)N[C@@H](CCCNC(=N)N)C(=O)N[C@@H](C)C(=O)N[C@@H](Cc1ccccc1)C(=O)N[C@H](C(=O)N[C@@H](CCC(=O)O)C(=O)N[C@@H](Cc1c[nH]c2ccccc12)C(=O)N[C@@H](CC(C)C)C(=O)N[C@@H](CC(C)C)C(=O)N[C@@H](C)C(=O)N[C@@H](CCC(N)=O)C(=O)N[C@@H](CCCCN)C(N)=O)C(C)C [Compound 17] (H-Y[Aib]EGTFTSDLSIALEKK([AEEA-AEEA-γGlu-C18 diacid])AQRAFVEWLLAQK-NH2)	11	–	6.2	6
CC[C@H](C)[C@H](NC(=O)[C@H](CO)NC(=O)[C@H](Cc1ccc(O)cc1)NC(=O)[C@H](CC(=O)O)NC(=O)[C@H](CO)NC(=O)[C@@H](NC(=O)[C@H](Cc1ccccc1)NC(=O)[C@@H](NC(=O)CNC(=O)[C@H](CCC(=O)O)NC(=O)C(C)(C)NC(=O)[C@@H](N)Cc1ccc(O)cc1)[C@@H](C)O)[C@@H](C)O)C(=O)N[C@@H](Cc1ccc(O)cc1)C(=O)N[C@@H](CC(C)C)C(=O)N[C@@H](CC(=O)O)C(=O)N[C@@H](CCCCN)C(=O)N[C@@H](CCCCNC(=O)COCCOCCNC(=O)COCCOCCNC(=O)CC[C@H](NC(=O)CCCCCCCCCCCCCCCCCCC(=O)O)C(=O)O)C(=O)N[C@@H](C)C(=O)N[C@@H](CCC(N)=O)C(=O)N[C@@H](CCCNC(=N)N)C(=O)N[C@@H](C)C(=O)N[C@@H](Cc1ccccc1)C(=O)N[C@H](C(=O)N[C@@H](CCC(=O)O)C(=O)N[C@@H](Cc1c[nH]c2ccccc12)C(=O)N[C@@H](CC(C)C)C(=O)N[C@@H](CC(C)C)C(=O)N[C@@H](C)C(=O)N[C@@H](CCC(=O)O)C(=O)NCC(=O)N1CCC[C@H]1C(=O)N[C@@H](CO)C(=O)N[C@@H](CO)C(=O)NCC(=O)N[C@@H](C)C(=O)N1CCC[C@H]1C(=O)N1CCC[C@H]1C(=O)N1CCC[C@H]1C(=O)N[C@@H](CO)C(N)=O)C(C)C [Compound 54] (H-Y[Aib]EGTFTSDYSIYLDKK([AEEA-AEEA-γGlu-C20 diacid])AQRAFVEWLLAEGPSSGAPPPS-NH2)	–	16	–	12
CC[C@H](C)[C@H](NC(=O)[C@H](CO)NC(=O)[C@H](Cc1ccc(O)cc1)NC(=O)[C@H](CC(=O)O)NC(=O)[C@H](CO)NC(=O)[C@@H](NC(=O)[C@H](Cc1ccccc1)NC(=O)[C@@H](NC(=O)CNC(=O)[C@H](CCC(=O)O)NC(=O)C(C)(C)NC(=O)[C@@H](N)Cc1ccc(O)cc1)[C@@H](C)O)[C@@H](C)O)C(=O)N[C@@H](C)C(=O)N[C@@H](CC(C)C)C(=O)N[C@@H](CC(=O)O)C(=O)N[C@@H](CCCCN)C(=O)N[C@@H](CCCCNC(=O)COCCOCCNC(=O)COCCOCCNC(=O)CC[C@H](NC(=O)CCCCCCCCCCCCCCCCCCC(=O)O)C(=O)O)C(=O)N[C@@H](C)C(=O)N[C@@H](CCC(N)=O)C(=O)N[C@@H](CCCCN)C(=O)N[C@@H](C)C(=O)N[C@@H](Cc1ccccc1)C(=O)N[C@H](C(=O)N[C@@H](CCC(=O)O)C(=O)N[C@@H](Cc1c[nH]c2ccccc12)C(=O)N[C@@H](CC(C)C)C(=O)N[C@@H](CC(C)C)C(=O)N[C@@H](C)C(=O)N[C@@H](C)C(=O)NCC(=O)N1CCC[C@H]1C(=O)N[C@@H](CO)C(=O)N[C@@H](CO)C(=O)NCC(=O)N[C@@H](C)C(=O)N1CCC[C@H]1C(=O)N1CCC[C@H]1C(=O)N1CCC[C@H]1C(=O)N[C@@H](CO)C(N)=O)C(C)C [Compound 45] (H-Y[Aib]EGTFTSDYSIALDKK([AEEA-AEEA-γGlu-C20 diacid])AQKAFVEWLLAAGPSSGAPPPS-NH2)	–	5	–	24
CC[C@H](C)[C@H](NC(=O)[C@H](CO)NC(=O)[C@H](Cc1ccc(O)cc1)NC(=O)[C@H](CC(=O)O)NC(=O)[C@H](CO)NC(=O)[C@@H](NC(=O)[C@H](Cc1ccccc1)NC(=O)[C@@H](NC(=O)CNC(=O)[C@H](CCC(=O)O)NC(=O)C(C)(C)NC(=O)[C@@H](N)Cc1ccc(O)cc1)[C@@H](C)O)[C@@H](C)O)C(=O)N[C@@H](C)C(=O)N[C@@H](CC(C)C)C(=O)N[C@@H](CC(=O)O)C(=O)N[C@@H](CCCCN)C(=O)N[C@@H](CCCCNC(=O)COCCOCCNC(=O)COCCOCCNC(=O)CN1CCN(C(=O)CCCCCCCCCCCCCCCCCCC(=O)O)CC1)C(=O)N[C@@H](C)C(=O)N[C@@H](CCC(N)=O)C(=O)N[C@@H](CCCNC(=N)N)C(=O)N[C@@H](C)C(=O)N[C@@H](Cc1ccccc1)C(=O)N[C@H](C(=O)N[C@@H](CCC(=O)O)C(=O)N[C@@H](Cc1c[nH]c2ccccc12)C(=O)N[C@@H](CC(C)C)C(=O)N[C@@H](CC(C)C)C(=O)N[C@@H](C)C(=O)N[C@@H](CCC(N)=O)C(=O)NCC(=O)N1CCC[C@H]1C(=O)N[C@@H](CO)C(=O)N[C@@H](CO)C(=O)NCC(=O)N[C@@H](C)C(=O)N1CCC[C@H]1C(=O)N1CCC[C@H]1C(=O)N1CCC[C@H]1C(=O)N[C@@H](CO)C(N)=O)C(C)C [Compound 52] (H-Y[Aib]EGTFTSDYSIALDKK([AEEA-AEEA-X1])AQRAFVEWLLAQGPSSGAPPPS-NH2)	–	10	–	12
